Reference: patent US20210244813A1, “ADJUVANT AND VACCINE COMPOSITIONS” (priority 2012, published 2021)

System: IL-4
Experiment: Relative IL-4 mRNA expression (real time RT-PCR) in cultured splenic lymphocytes of vaccinated mice
Type: cell-based
Settings: vaccine treatment group; culture with LAP, LAP/QAC or OVA

## OVA
  IL-4 expression normalized to ARBP at 48 hours in culture: Increased IL-4 expression was observed for some animals
